Assay [1] has as its target Serine/threonine-protein kinase pim-1 (Homo sapiens) (UniProt P11309). Description: Inhibition of human full length PIM1 expressed in baculovirus assessed as substrate phosphorylation using fluorescence-labelled peptides as substrate at 0.2 uM after 90 mins by microfluidic peptide phosphorylation assay.
The target of assay [2] is T1, cGMP-dependent protein kinase 1 (Homo sapiens) (UniProt Q13976).
T1 sequence (whole entry): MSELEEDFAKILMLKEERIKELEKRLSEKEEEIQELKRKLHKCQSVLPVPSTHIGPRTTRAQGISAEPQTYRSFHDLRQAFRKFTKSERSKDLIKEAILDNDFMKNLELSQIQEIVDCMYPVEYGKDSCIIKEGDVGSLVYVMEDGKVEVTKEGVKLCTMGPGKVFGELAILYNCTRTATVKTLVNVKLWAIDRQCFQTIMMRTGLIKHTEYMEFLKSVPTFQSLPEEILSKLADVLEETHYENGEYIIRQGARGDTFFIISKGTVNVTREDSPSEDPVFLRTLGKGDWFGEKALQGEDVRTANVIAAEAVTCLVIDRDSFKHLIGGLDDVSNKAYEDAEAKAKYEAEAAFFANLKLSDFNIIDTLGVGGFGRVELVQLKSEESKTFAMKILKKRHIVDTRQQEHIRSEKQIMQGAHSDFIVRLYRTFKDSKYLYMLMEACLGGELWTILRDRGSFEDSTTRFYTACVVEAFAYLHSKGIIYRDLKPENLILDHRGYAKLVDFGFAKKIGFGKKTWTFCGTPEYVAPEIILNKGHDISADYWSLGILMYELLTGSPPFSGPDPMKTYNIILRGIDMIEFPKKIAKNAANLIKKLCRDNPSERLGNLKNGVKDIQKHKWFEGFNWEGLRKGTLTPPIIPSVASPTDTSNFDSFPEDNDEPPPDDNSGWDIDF
Description: Inhibition of human full length PKG-1beta expressed in baculovirus assessed as substrate phosphorylation using fluorescence-labelled peptides as substrate at 0.2 uM after 90 mins by microfluidic peptide phosphorylation assay.

Assay [3] concerns the target Serine/threonine-protein kinase pim-1 (Homo sapiens) (UniProt P11309). Description: Inhibition of human full length PIM1 expressed in baculovirus assessed as substrate phosphorylation using fluorescence-labelled peptides as substrate at 9 uM after 90 mins by microfluidic peptide phosphorylation assay.
Assay [4] concerns the target Insulin receptor (Homo sapiens) (UniProt P06213). Description: Inhibition of human INSR catalytic domain expressed in baculovirus assessed as substrate phosphorylation using fluorescence-labelled peptides as substrate at 9 uM after 90 mins by microfluidic peptide phosphorylation assay.
The target of assay [5] is Tyrosine-protein kinase Lyn (Homo sapiens) (UniProt P07948). Description: Inhibition of human full length LYN expressed in baculovirus assessed as substrate phosphorylation using fluorescence-labelled peptides as substrate at […] after 90 mins by microfluidic peptide phosphorylation assay.
Tyrosine-protein kinase Lyn (Homo sapiens), sequence (P07948 2-512 limits assumed): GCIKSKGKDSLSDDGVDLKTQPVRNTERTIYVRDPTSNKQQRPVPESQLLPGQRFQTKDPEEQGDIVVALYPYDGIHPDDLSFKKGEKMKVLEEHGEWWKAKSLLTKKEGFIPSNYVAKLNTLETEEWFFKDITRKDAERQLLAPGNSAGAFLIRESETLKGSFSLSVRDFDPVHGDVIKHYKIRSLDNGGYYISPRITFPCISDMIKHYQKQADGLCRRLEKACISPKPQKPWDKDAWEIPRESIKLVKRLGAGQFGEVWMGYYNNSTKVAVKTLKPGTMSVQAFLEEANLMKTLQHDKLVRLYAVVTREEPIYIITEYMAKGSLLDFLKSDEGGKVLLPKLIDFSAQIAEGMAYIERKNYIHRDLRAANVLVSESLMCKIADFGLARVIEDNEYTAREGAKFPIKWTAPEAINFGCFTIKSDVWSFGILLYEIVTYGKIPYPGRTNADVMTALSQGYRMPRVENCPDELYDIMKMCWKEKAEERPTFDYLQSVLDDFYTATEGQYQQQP
The target in assay [6] is T2, Serine/threonine-protein kinase 3 (Homo sapiens) (UniProt Q13188).
T2 sequence (whole entry): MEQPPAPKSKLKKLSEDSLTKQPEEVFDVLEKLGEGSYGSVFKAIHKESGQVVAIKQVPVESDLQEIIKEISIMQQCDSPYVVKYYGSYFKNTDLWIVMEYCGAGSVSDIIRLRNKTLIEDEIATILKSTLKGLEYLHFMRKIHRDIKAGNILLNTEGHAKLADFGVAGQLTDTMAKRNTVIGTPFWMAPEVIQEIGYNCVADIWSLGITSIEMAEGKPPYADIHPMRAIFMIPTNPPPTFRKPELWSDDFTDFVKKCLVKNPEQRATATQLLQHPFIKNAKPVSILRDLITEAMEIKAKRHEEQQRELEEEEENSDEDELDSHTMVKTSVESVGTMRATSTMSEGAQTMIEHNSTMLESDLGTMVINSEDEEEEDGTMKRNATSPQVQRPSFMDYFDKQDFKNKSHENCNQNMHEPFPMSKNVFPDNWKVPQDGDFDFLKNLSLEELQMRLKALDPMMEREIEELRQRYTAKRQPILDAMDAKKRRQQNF
Description: Inhibition of human full length MST2 expressed in baculovirus assessed as substrate phosphorylation using fluorescence-labelled peptides as substrate at 2 uM after 90 mins by microfluidic peptide phosphorylation assay.

Assay [7] has as its target T3, Aurora kinase A (Homo sapiens) (UniProt O14965).
T3 sequence (whole entry): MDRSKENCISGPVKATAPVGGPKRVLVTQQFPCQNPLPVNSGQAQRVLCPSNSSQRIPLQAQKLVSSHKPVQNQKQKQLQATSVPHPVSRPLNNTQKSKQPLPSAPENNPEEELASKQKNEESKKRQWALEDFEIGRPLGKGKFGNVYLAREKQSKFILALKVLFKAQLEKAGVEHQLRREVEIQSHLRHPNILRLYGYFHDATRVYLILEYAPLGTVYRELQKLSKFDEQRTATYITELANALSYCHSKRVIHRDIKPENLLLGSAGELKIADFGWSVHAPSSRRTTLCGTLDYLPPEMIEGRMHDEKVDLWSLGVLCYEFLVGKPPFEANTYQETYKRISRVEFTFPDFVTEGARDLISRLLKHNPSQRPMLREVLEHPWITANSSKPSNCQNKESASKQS
Description: Inhibition of human full length AurA expressed in baculovirus assessed as substrate phosphorylation using fluorescence-labelled peptides as substrate at 2 uM after 90 mins by microfluidic peptide phosphorylation assay.

The target in assay [8] is T4, Protein kinase C zeta type (Homo sapiens) (UniProt Q05513).
T4 sequence (whole entry): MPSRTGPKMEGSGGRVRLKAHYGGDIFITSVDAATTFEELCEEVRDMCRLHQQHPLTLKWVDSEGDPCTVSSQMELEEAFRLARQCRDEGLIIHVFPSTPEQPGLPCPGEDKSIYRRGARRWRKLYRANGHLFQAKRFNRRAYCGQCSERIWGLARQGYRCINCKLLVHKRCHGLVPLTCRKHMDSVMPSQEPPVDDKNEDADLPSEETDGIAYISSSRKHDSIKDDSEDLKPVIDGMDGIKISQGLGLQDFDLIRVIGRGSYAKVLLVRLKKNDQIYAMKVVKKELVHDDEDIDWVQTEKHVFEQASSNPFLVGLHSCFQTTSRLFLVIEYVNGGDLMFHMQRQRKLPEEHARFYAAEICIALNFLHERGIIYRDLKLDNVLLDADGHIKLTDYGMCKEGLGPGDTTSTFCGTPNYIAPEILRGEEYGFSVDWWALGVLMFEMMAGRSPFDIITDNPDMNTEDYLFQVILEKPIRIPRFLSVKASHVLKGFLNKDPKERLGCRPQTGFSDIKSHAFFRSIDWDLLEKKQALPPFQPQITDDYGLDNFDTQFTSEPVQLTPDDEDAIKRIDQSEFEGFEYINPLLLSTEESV
Description: Inhibition of human full length PKC zeta expressed in baculovirus assessed as substrate phosphorylation using fluorescence-labelled peptides as substrate at 70 uM after 90 mins by microfluidic peptide phosphorylation assay.

Assay [9] has as its target Receptor-type tyrosine-protein kinase FLT3 (Homo sapiens) (UniProt P36888). Description: Inhibition of human FLT3 catalytic domain expressed in baculovirus assessed as substrate phosphorylation using fluorescence-labelled peptides as substrate at 70 uM after 90 mins by microfluidic peptide phosphorylation assay.

One may read the inhibition as the relative decrease from the control value, in per cent.

Serine/threonine-protein kinase pim-1 (Homo sapiens), sequence (P11309 whole entry, looked up, the tested form may be a part): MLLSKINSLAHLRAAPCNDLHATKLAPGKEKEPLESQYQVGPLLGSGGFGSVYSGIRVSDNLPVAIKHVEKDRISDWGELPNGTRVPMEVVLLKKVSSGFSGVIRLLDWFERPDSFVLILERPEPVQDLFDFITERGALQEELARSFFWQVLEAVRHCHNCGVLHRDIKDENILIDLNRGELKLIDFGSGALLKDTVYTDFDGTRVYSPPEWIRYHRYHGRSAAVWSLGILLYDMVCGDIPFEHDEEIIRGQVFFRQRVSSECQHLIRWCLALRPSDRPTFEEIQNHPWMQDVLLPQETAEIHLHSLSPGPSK
Receptor-type tyrosine-protein kinase FLT3 (Homo sapiens), sequence (P36888 whole entry, the tested form may be a part): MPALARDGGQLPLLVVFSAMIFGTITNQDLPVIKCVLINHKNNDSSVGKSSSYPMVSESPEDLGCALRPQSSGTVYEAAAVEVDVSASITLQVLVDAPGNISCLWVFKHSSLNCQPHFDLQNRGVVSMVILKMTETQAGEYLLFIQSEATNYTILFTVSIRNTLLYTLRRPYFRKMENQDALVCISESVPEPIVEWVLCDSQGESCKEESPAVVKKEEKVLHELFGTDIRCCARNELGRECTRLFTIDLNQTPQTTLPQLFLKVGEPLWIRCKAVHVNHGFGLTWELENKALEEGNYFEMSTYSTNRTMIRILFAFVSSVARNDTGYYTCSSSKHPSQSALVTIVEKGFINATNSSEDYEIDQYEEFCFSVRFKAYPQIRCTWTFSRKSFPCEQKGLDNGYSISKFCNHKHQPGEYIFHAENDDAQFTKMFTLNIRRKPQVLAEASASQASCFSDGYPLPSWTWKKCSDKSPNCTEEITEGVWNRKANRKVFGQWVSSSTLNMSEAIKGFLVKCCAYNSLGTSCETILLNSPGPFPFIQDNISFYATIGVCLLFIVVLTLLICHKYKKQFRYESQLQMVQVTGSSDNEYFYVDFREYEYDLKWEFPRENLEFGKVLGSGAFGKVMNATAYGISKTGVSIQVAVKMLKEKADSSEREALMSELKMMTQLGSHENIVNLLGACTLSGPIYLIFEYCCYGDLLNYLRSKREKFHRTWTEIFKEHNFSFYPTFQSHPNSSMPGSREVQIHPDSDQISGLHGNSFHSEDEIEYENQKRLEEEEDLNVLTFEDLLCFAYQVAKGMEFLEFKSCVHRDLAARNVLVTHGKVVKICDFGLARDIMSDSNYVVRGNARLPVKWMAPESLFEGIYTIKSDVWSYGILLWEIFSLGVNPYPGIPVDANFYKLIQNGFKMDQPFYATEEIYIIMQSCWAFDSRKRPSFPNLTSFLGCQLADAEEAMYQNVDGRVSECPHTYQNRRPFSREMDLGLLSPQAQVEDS

On to `Clc1ccc(C2(c3ccc(-c4ncnc5[nH]cnc45)cc3)CCNCC2)cc1`, for which the inhibition in assay [1] is 0%; in [2], 88.5%.

`NCC1CN(c2ncnc3[nH]c4cnccc4c23)CCO1` (centres undefined): the inhibition came to 36.5% in assay [3] and 2.5% in assay [4].

Consider `COC(=O)c1cnc(Nc2cnc(C#N)cn2)cc1NCC1CCNCC1`, for which the inhibition in [5] turned out to be 8%.

For the molecule `NC1CCN(c2ncnc3[nH]ccc23)CC1`, the values for the inhibition in assay [6] and in assay [7] were 17.5% and 64.5%, respectively.

With `CNCc1ccc(-c2ncnc3[nH]cnc23)cc1`, the inhibition was found to be 0% in assay [8] and 36% in assay [9].

Values taken from ChEMBL document CHEMBL3132769, “Fragment growing to retain or alter the selectivity of anchored kinase hinge-binding fragments” (Medchemcomm, 2014).
